# US20240093184A1, “CHEMICALLY REVERSIBLE 2`-OH ACYLATION PROTECTS RNA FROM HYDROLYTIC AND ENZYMATIC DEGRADATION” (The Board of Trustees of the Leland Stanford Junior …, priority 2022, published 2024)
# What was measured:
# [1] = system: eGFP-mRNA; test: Accelerated RNA aging of cloaked eGFP-mRNA in RNase-free water at 37° C., capillary electrophoresis; format: physicochemical; conditions: for resistance of cloaked eGFP-mRNA to thermal degradation: equivalently cloaked (˜50% of unpaired accessible 2′-OH); for extension of lifespan of eGFP-mRNA: extensive cloaking (>90% of accessible 2′-hydroxyls)
# Procedure: (§1) In this example, the capacity to use this RNA cloaking strategy to stabilize RNA in solution was assessed with accelerated RNA aging experiments by incubating eGFP-mRNA species with or without cloaking with NAIN3 ((2-(azidomethyl)pyridin-3-yl)(1H-imidazol-1-yl)methanone) in RNase-free water at a mildly elevated temperature (37° C.) (FIG. 1). We then evaluated the lifespan of the mRNA by measuring the relative fraction of remaining fully intact RNA over time. […] Acylation-induced stabilization was further tested on a second, longer mRNA. […] No depurination of adenosine and […] was observed during the span of degradation experiments (FIG. 2). See, for example, FIG. 1.
# (§2) We screened these acylimidazole reagents for modulation of RNA thermal degradation by performing accelerated RNA aging experiments with eGFP-mRNA aliquots that were equivalently cloaked (˜50% of unpaired accessible 2′-OH). Representative CE data are shown in FIG. 1 for cloaked eGFP-mRNA, which resisted thermal degradation across broad substituent types. […] Noting subtle differences in the stabilization, we hypothesized that the varying protection afforded by the reagents might arise from differential hydrolytic stability of their adducts; this was later confirmed (see below). […] To compensate for this, more extensive cloaking by N,N-dimethylglycine (DMG) acylimidazole (>90% of unpaired accessible 2″-OH) extended the lifespan of eGFP-m RNA by ˜5-fold.
# [2] = system: 18nt model RNA; test: Nucleophile screen for removal (uncloaking) of 2′-acyl adducts; format: physicochemical; conditions: for reversibility of acyl adducts by nucleophiles: 37° C., neutral pH
# From the text: Nucleophiles are known to catalyze ester hydrolysis; examples include the use of imidazole and pyridine as nucleophilic catalysts. To restore biological activity of RNAs after cloaking-based stabilization, we tested uncloaking strategies to promote rapid hydrolysis of 2′-carboxyl esters with weakly basic nucleophiles (FIG. 5). […] In the library design, we avoided the use of strong Bronsted bases to prevent hydrolytic RNA backbone cleavage. Nucleophiles were screened against the 18nt model RNA containing acyl groups of each type at 37° C. and neutral pH, which identified at least 9 sensitive acylation-nucleophile pairs that promoted >50% removal of adducts within 2 hours. […] Other adducts can also be rapidly removed with designated nucleophiles, with half-lives for reversal ranging from 1.1 to 1.8 hours.
# For 2′-acyl adduct by DMG, the effects of the biocompatible tris(hydroxymethyl) aminomethane (Tris) buffer alone were substantial, consistent with previous reports that Tris can hydrolyze active esters.
# [3] = system: HeLa cells; test: Translation of cloaked eGFP-mRNA in transfected HeLa cells (flow cytometry, fluorescence imaging); format: cell-based, human; conditions: intermediately cloaked, over two days
# From the text: Intact cells maintain high intracellular concentrations of nucleophilic species such as cysteine and glutathione. […] In this example, we employed cloaked mRNAs encoding fluorescent reporter proteins. Indeed, we observed the emergence of strong green fluorescence signals by flow cytometry over a period of two days in HeLa cells transfected with intermediately DMG-cloaked eGFP-mRNA. […] Moreover, the delayed translation of cloaked mRNAs reflects an initial uncloaking step, which when occurring over time may provide slow-release translation kinetics—reducing an early expression peak and extending the duration of translation (see below). Finally, we also observed that translation of eGFP-mRNA with alkoxyl acyl adduct can also be restored in cells, highlighting possible control over mRNA release kinetics by modification of the acyl group.
# [4] = system: Fluc-mRNA; test: Accelerated RNA aging of cloaked Fluc-mRNA in water at 37° C.; format: physicochemical; conditions: extensive cloaking (>90% of unpaired 2′-hydroxyls), six days in water
# Procedure: as §1
# [5] = system: EMX1-sgRNA; test: In vitro DNA cleavage function of CRISPR sgRNA; format: biochemical; conditions: Tris for DMG-cloaked sgRNA, DABCO for alkoxy acylimidazole-cloaked sgRNA; neutral pH, 11 hours
# [6] = system: mRNAs (TBP, PPIE, and PSMB6); conditions: HEK293 total RNA cloaked with DMG acylimidazole; Tris alone, neutral pH, 24 h
# Procedure: For instance, the ability of a single 2′-acylation to halt reverse transcriptase during primer extension necessitates efficient 2′-deacylation to avoid premature reverse transcription termination. […] We isolated and cloaked total cellular RNA from HEK293 cells with DMG acylimidazole, and recovery efficiency was evaluated for three representative mRNAs by the reverse transcription efficiencies. […] Recent experiments have shown that local 2′-acylation can terminate translation when
# [7] = system: eGFP-mRNA; test: In vitro translation assay of cloaked and uncloaked eGFP-mRNA; format: biochemical
# From the text: introduced into the coding region of mRNAs. Thus, we investigated whether Tris could restore the translation of a model eGFP-mRNA densely cloaked (50%) by DMG acylimidazole. […] To explore the generality of this observation, we applied the methods to an in vitro transcribed CRISPR sgRNA. Acylation of EMX1-sgRNA by other reagents blocked its cleavage function (<10%) in vitro.
# [8] = system: SW480; test: Translation of cloaked eGFP-mRNA in SW480 cells; format: cell-based, human
# [9] = Serum stability of cloaked EMX1-sgRNA; format: in vitro ADME; conditions: 105nt sgRNA
# From the text: (§3) In this example, we systematically characterized how acylimidazoles affect enzymatic degradation of EMX1-sgRNA in serum, a 105nt single guide RNA (sgRNA) for CRISPR-Cas9 gene editing (FIG. 7). […] Among all reagents, DMG acylimidazole enhanced sgRNA stability the most, by up to 14-fold. […] Although such protection most likely extends to other RNAs, the secondary structures of RNA may influence the magnitude of enhancement in enzymatic stability. […] This is likely due in part to different RNA motifs having distinct “hotspots” for enzymatic degradation, which may not be completely shielded by cloaking. Taken together, 2′-acylation effectively enhances the serum stability of RNA, the magnitude of which may be influenced by the length and structure of the underlying RNA.
# [10] = system: HEK293; test: Translation of cloaked eGFP-mRNA in HEK293 cells; format: cell-based, human
# [11] = system: HeLa cells; test: Translation of cloaked d2GFP-mRNA in HeLa cells; format: cell-based, human
# Procedure: We therefore adopted a reporter system employing mRNA encoding a destabilized green fluorescent protein d2GFP, where both mRNA and protein degradation occur with similar half-lives of ˜2-3 hours. We observed that the translation of unprotected d2GFP-mRNA quickly descended after peaking. […] Taken together, RNA cloaking by DMG derivative DMG acylimidazole effectively extended d2GFP-mRNA functional lifespan and translation, providing insights for the potential use of reversible 2′-acylation as a modulator of mRNA translation kinetics.
# [12] = system: EMX1-sgRNA; test: Storage of cloaked EMX1-sgRNA in frozen RNase-free water (−80° C.); format: physicochemical; conditions: 9 months
# Procedure: FIG. 4. Integrity of cloaked EMX1-sgRNA (105 nt) upon incubation in frozen RNase-free water after 9 months (−80° C.).
# as §2
# [13] = system: RNase A; test: Nucleolytic degradation of cloaked eGFP-mRNA by RNase A; format: biochemical
# From the text: (§4) In this example, we systemically surveyed protective effects of cloaking with representative RNases and biofluids, recapitulating the common enzymatic conditions RNAs encounter during storage, handling, and application (FIG. 7). […] We next evaluated whether cloaking could ameliorate mRNA degradation in fetal bovine serum (FBS), a frequent component of eukaryotic cell culture (FIG. 8). […] This is likely due in part to DMG acylimidazole retaining RNA secondary structures and helicity for maximum resistance to RNases. Acylating reagents also protect eGFP-mRNA against FBS to varying degrees. […] Thus, 2′-acylation provides context-dependent protection of long RNA (e.g., mRNA) against ribonucleolytic enzymes. Reagent DMG acylimidazole effectively shields mRNA against a broad range of RNases.
# [14] = system: RNase T1; test: Nucleolytic degradation of cloaked eGFP-mRNA by RNase T1; format: biochemical
# From the text: as §4
# [15] = Serum stability of cloaked RNA motifs; format: in vitro ADME
# From the text: as §3
molecule,measurement,setting,value
CC(=O)n1ccnc1 [acetylimidazole],resistance of cloaked eGFP-mRNA to thermal degradation,[1],attenuated RNA hydrolysis
same,reversibility of acyl adducts by nucleophiles,[2],relatively resistant to reversal by nonbasic nucleophiles
same,reversal of 2′-acyl adduct by Tris buffer alone,[2],not reversed by Tris
CCOCC(=O)n1ccnc1 [ethoxyacetyl compound],resistance of cloaked eGFP-mRNA to thermal degradation,[1],providing the most stability
"[N-]=[N+]=NCc1ncccc1C(=O)n1ccnc1 [NAIN3, (2-(azidomethyl)pyridin-3-yl)(1H-imidazol-1-yl)methanone, reference compound]",extension of lifespan of eGFP-mRNA,"[1]; RNase-free water, 37° C.",-7 fold
same,extension of lifespan of intact eGFP-mRNA,"[1]; intermediate cloaking (˜50% of unpaired 2′-hydroxyls), RNase-free water, 37° C.",-3 fold
same,damage to the nucleobases (deamination of adenine and cytosine),[1]; within the timespan of the aging experiment,No damage to the nucleobases
same,translation of cloaked eGFP-mRNA in cells,[3],translation remained strongly inhibited
same,reversibility of acyl adducts by nucleophiles,[2],can be reversed via Staudinger reaction
same,backbone cleavage of Fluc-mRNA,[4],almost completely blocked backbone cleavage
"C1CN2CCN1CC2 [DABCO, 1,4-diazabicyclo[2.2.2]octane]",restoration of DNA cleavage of cloaked sgRNA,[5],fully restored DNA cleavage
O=C(c1cccnc1)n1ccnc1 [nicotinic acid acylimidazole],reversibility of acyl adducts by nucleophiles,[2],relatively resistant to reversal by nonbasic nucleophiles
tris(hydroxymethyl)aminomethane,restoration of DNA cleavage of cloaked sgRNA,[5],fully restored DNA cleavage
same,recovery of reverse transcription of cloaked mRNAs,[6],reinstated the reverse transcription
same,restoration of eGFP expression,"[7]; DMG acylimidazole-cloaked eGFP-mRNA, Tris, pH=7.5 at 37° C.",up to 87%
"CN(C)CC(=O)n1ccnc1 [DMG acylimidazole, N,N-dimethylglycine (DMG) acylimidazole]",recovery of eGFP expression,[8],confirmed generality
same,increase in serum stability of EMX1-sgRNA,[9],up to 14 fold
same,resistance of cloaked eGFP-mRNA to thermal degradation,[1],slightly reduced enhancement of RNA thermal stability
same,extension of lifespan of eGFP-mRNA,"[1]; RNase-free water, 37° C.",~5 fold
same,recovery of eGFP expression,[10],confirmed generality
same,enhancement of total protein output of d2GFP-mRNA,"[11]; HeLa cells, versus unprotected d2GFP-mRNA",31%
same,duration of sustained d2GFP-mRNA translation at its peak level,"[11]; intermediate cloaking, HeLa",~10 h
same,stability of in vitro transcribed EMX1-sgRNA on storage,[12],enhanced stability
same,protection of eGFP-mRNA from nucleolytic degradation by RNase A,[13],effectively shielded
same,reversal of 2′-acyl adduct by Tris buffer alone,[2],substantial
same,translation of cloaked eGFP-mRNA in vitro,[7]; eGFP-mRNA densely cloaked (50%),strongly blocked the translation
same,protection of eGFP-mRNA from nucleolytic degradation by RNase T1,[14],effectively shielded
same,serum stability of a bulge loop RNA motif,[15]; bulge loop,increases the serum stability
same,serum stability of an internal loop motif,[15]; internal loop,minimal enhancement
same,serum stability of a structurally complex pseudoknot,[15]; pseudoknot,increases the serum stability
